# Tests used:
# CCRF-CEM = assay: NCI 60 screen, CCRF-CEM; type: cell-based; details: Homo sapiens, Leukemia
# Experimental: (§1) The compounds synthesized were tested at the National Cancer Institute (NCI) for anti-proliferative activity in the 60 human tumor cell line assay.
# HL-60(TB) = assay: NCI 60 screen, HL-60(TB); type: cell-based; details: Homo sapiens, Leukemia
# Experimental: as §1
# K-562 = assay: NCI 60 screen, K-562; type: cell-based; details: Homo sapiens, K562, Leukemia
# Experimental: as §1
# MOLT-4 = assay: NCI 60 screen, MOLT-4; type: cell-based; details: Homo sapiens, Leukemia
# Experimental: as §1
# RPMI-8226 = assay: NCI 60 screen, RPMI-8226; type: cell-based; details: Homo sapiens, Leukemia
# Experimental: as §1
# SR = assay: NCI 60 screen, SR; type: cell-based; details: Homo sapiens, Leukemia
# Experimental: as §1
# A549/ATCC = assay: NCI 60 screen, A549/ATCC; type: cell-based; details: Homo sapiens, Non-Small Cell Lung
# Experimental: as §1
# EKVX = assay: NCI 60 screen, EKVX; type: cell-based; details: Homo sapiens, Non-Small Cell Lung
# Experimental: as §1
# HOP-62 = assay: NCI 60 screen, HOP-62; type: cell-based; details: Homo sapiens, Non-Small Cell Lung
# Experimental: as §1
# HOP-92 = assay: NCI 60 screen, HOP-92; type: cell-based; details: Homo sapiens, Non-Small Cell Lung
# Experimental: as §1
# NCI-H226 = assay: NCI 60 screen, NCI-H226; type: cell-based; details: Homo sapiens, Non-Small Cell Lung
# Experimental: as §1
# NCI-H23 = assay: NCI 60 screen, NCI-H23; type: cell-based; details: Homo sapiens, Non-Small Cell Lung
# Experimental: as §1
# NCI-322M = assay: NCI 60 screen, NCI-322M; type: cell-based; details: Homo sapiens, Non-Small Cell Lung
# Experimental: as §1
# NCI-460 = assay: NCI 60 screen, NCI-460; type: cell-based; details: Homo sapiens, Non-Small Cell Lung
# Experimental: as §1
# NCI-H522 = assay: NCI 60 screen, NCI-H522; type: cell-based; details: Homo sapiens, Non-Small Cell Lung
# Experimental: as §1
# COLO 205 = assay: NCI 60 screen, COLO 205; type: cell-based; details: Homo sapiens, Colon
# Experimental: as §1
# HCC-2998 = assay: NCI 60 screen, HCC-2998; type: cell-based; details: Homo sapiens, Colon
# Experimental: as §1
# HCT-116 = assay: NCI 60 screen, HCT-116; type: cell-based; details: Homo sapiens, Colon
# Experimental: as §1
# HCT15 = assay: NCI 60 screen, HCT15; type: cell-based; details: Homo sapiens, HCT-15, Colon
# Experimental: as §1
# HT29 = assay: NCI 60 screen, HT29; type: cell-based; details: Homo sapiens, HT-29, Colon
# Experimental: as §1
# KM12 = assay: NCI 60 screen, KM12; type: cell-based; details: Homo sapiens, Colon
# Experimental: as §1
# SW-620 = assay: NCI 60 screen, SW-620; type: cell-based; details: Homo sapiens, Colon
# Experimental: as §1
# SF-268 = assay: NCI 60 screen, SF-268; type: cell-based; details: Homo sapiens, CNS
# Experimental: as §1
# SF-295 = assay: NCI 60 screen, SF-295; type: cell-based; details: Homo sapiens, CNS
# Experimental: as §1
# SF-539 = assay: NCI 60 screen, SF-539; type: cell-based; details: Homo sapiens, CNS
# Experimental: as §1
# SNB-19 = assay: NCI 60 screen, SNB-19; type: cell-based; details: Homo sapiens, CNS
# Experimental: as §1
# SNB-75 = assay: NCI 60 screen, SNB-75; type: cell-based; details: Homo sapiens, CNS
# Experimental: as §1
# U251 = assay: NCI 60 screen, U251; type: cell-based; details: Homo sapiens, U-251, CNS
# Experimental: as §1
# LOX IMVI = assay: NCI 60 screen, LOX IMVI; type: cell-based; details: Homo sapiens, Melanoma
# Experimental: as §1
# MALME-3M = assay: NCI 60 screen, MALME-3M; type: cell-based; details: Homo sapiens, Melanoma
# Experimental: as §1
# M14 = assay: NCI 60 screen, M14; type: cell-based; details: Homo sapiens, Melanoma
# Experimental: as §1
# MDA-MB-435 = assay: NCI 60 screen, MDA-MB-435; type: cell-based; details: Homo sapiens, Melanoma
# Experimental: as §1
# SK-MEL-2 [1] = assay: NCI 60 screen, SK-MEL-2 (first line); type: cell-based; details: Homo sapiens; Melanoma, SK-MEL-2 (first of two lines so named, r37)
# Experimental: as §1
# SK-MEL-2 [2] = assay: NCI 60 screen, SK-MEL-2 (second line); type: cell-based; details: Homo sapiens; Melanoma, SK-MEL-2 (second of two lines so named, r38)
# Experimental: as §1
# SK-MEL-5 = assay: NCI 60 screen, SK-MEL-5; type: cell-based; details: Homo sapiens, Melanoma
# Experimental: as §1
# UACC-257 = assay: NCI 60 screen, UACC-257; type: cell-based; details: Homo sapiens, Melanoma
# Experimental: as §1
# UACC-62 = assay: NCI 60 screen, UACC-62; type: cell-based; details: Homo sapiens, Melanoma
# Experimental: as §1
# IGROV1 = assay: NCI 60 screen, IGROV1; type: cell-based; details: Homo sapiens, IGROV-1, Ovarian
# Experimental: as §1
# OVCAR-3 = assay: NCI 60 screen, OVCAR-3; type: cell-based; details: Homo sapiens, Ovarian
# Experimental: as §1
# OVCAR-4 = assay: NCI 60 screen, OVCAR-4; type: cell-based; details: Homo sapiens, Ovarian
# Experimental: as §1
# OVCAR-5 = assay: NCI 60 screen, OVCAR-5; type: cell-based; details: Homo sapiens, Ovarian
# Experimental: as §1
# OVCAR-8 = assay: NCI 60 screen, OVCAR-8; type: cell-based; details: Homo sapiens, Ovarian
# Experimental: as §1
# NCI/ADR-RES = assay: NCI 60 screen, NCI/ADR-RES; type: cell-based; details: Homo sapiens, Ovarian
# Experimental: as §1
# SK-OV-3 = assay: NCI 60 screen, SK-OV-3; type: cell-based; details: Homo sapiens, Ovarian
# Experimental: as §1
# 786-0 = assay: NCI 60 screen, 786-0; type: cell-based; details: Homo sapiens, Renal
# Experimental: as §1
# A498 = assay: NCI 60 screen, A498; type: cell-based; details: Homo sapiens, Renal
# Experimental: as §1
# ACHN = assay: NCI 60 screen, ACHN; type: cell-based; details: Homo sapiens, Renal
# Experimental: as §1
# RXF393 = assay: NCI 60 screen, RXF393; type: cell-based; details: Homo sapiens, RXF 393, Renal
# Experimental: as §1
# SN12C = assay: NCI 60 screen, SN12C; type: cell-based; details: Homo sapiens, Renal
# Experimental: as §1
# TK-10 = assay: NCI 60 screen, TK-10; type: cell-based; details: Homo sapiens, Renal
# Experimental: as §1
# UO-31 = assay: NCI 60 screen, UO-31; type: cell-based; details: Homo sapiens, Renal
# Experimental: as §1
# PC-3 = assay: NCI 60 screen, PC-3; type: cell-based; details: Homo sapiens, Prostatic
# Experimental: as §1
# DU-145 = assay: NCI 60 screen, DU-145; type: cell-based; details: Homo sapiens, Prostatic
# Experimental: as §1
# MCF7 = assay: NCI 60 screen, MCF7; type: cell-based; details: Homo sapiens, Breast
# Experimental: as §1
# MDA-MB-231/ATCC = assay: NCI 60 screen, MDA-MB-231/ATCC; type: cell-based; details: Homo sapiens, Breast
# Experimental: as §1
# HS 578T = assay: NCI 60 screen, HS 578T; type: cell-based; details: Homo sapiens, Breast
# Experimental: as §1
# BT-549 = assay: NCI 60 screen, BT-549; type: cell-based; details: Homo sapiens, Breast
# Experimental: as §1
# T-47D = assay: NCI 60 screen, T-47D; type: cell-based; details: Homo sapiens, T47D, Breast
# Experimental: as §1
# MDA-MB-468 = assay: NCI 60 screen, MDA-MB-468; type: cell-based; details: Homo sapiens, Breast
# Experimental: as §1
# CAKI-1 = assay: NCI 60 screen, CAKI-1; type: cell-based; details: Homo sapiens, Renal
# Experimental: as §1
structure (smiles),measurement,setting,value
"Cn1ccnc1C(=O)/C=C/c1ccc(CC(=O)Nc2ccccc2)cc1 [Compound 27, (E)-2-(4-(3-(1-methyl-1H-imidazol-2-yl)-3-oxoprop-1-en-1-yl)phenyl)-N-phenylacetamide]",GI50,CCRF-CEM,2370 nM
same,GI50,HL-60(TB),1570 nM
same,GI50,K-562,1070 nM
same,GI50,MOLT-4,4.3 µM
same,GI50,RPMI-8226,1450 nM
same,GI50,SR,1160 nM
same,GI50,A549/ATCC,6.6 µM
same,GI50,EKVX,6.28 µM
same,GI50,HOP-62,3.75 µM
same,GI50,HOP-92,6.63 µM
same,GI50,NCI-H226,8.59 µM
same,GI50,NCI-H23,3.24 µM
same,GI50,NCI-322M,2570 nM
same,GI50,NCI-460,2320 nM
same,GI50,NCI-H522,3.2 µM
same,GI50,COLO 205,3.77 µM
same,GI50,HCC-2998,4.42 µM
same,GI50,HCT-116,1680 nM
same,GI50,HCT15,1250 nM
same,GI50,HT29,2400 nM
same,GI50,KM12,3390 nM
same,GI50,SW-620,2750 nM
same,GI50,SF-268,3.75 µM
same,GI50,SF-295,5.44 µM
same,GI50,SF-539,2.43 µM
same,GI50,SNB-19,1900 nM
same,GI50,SNB-75,25 µM
same,GI50,U251,1570 nM
same,GI50,LOX IMVI,1030 nM
same,GI50,MALME-3M,5.93 µM
same,GI50,M14,4.55 µM
same,GI50,MDA-MB-435,4.3 µM
same,GI50,SK-MEL-2 [1],5.06 µM
same,GI50,SK-MEL-2 [2],5.69 µM
same,GI50,SK-MEL-5,4.18 µM
same,GI50,UACC-257,6.98 µM
same,GI50,UACC-62,4.13 µM
same,GI50,IGROV1,2110 nM
same,GI50,OVCAR-3,1870 nM
same,GI50,OVCAR-4,4.12 µM
same,GI50,OVCAR-5,4.19 µM
same,GI50,OVCAR-8,6.44 µM
same,GI50,NCI/ADR-RES,7.54 µM
same,GI50,SK-OV-3,9.3 µM
same,GI50,786-0,2670 nM
same,GI50,A498,6.08 µM
same,GI50,ACHN,5.24 µM
same,GI50,RXF393,3.86 µM
same,GI50,SN12C,3840 nM
same,GI50,TK-10,7.44 µM
same,GI50,UO-31,2770 nM
same,GI50,PC-3,3290 nM
same,GI50,DU-145,1100 nM
same,GI50,MCF7,1130 nM
same,GI50,MDA-MB-231/ATCC,2370 nM
same,GI50,HS 578T,1420 nM
same,GI50,BT-549,2950 nM
same,GI50,T-47D,5.23 µM
same,GI50,MDA-MB-468,1710 nM
same,melting point,,184 to 186 °C
"Cn1ccnc1C(=O)/C=C/c1ccc(CC(=O)Nc2ccc(F)cc2)cc1 [Compound 28, (E)-N-(4-fluorophenyl)-2-(4-(3-(1-methyl-1H-imidazol-2-yl)-3-oxoprop-1-en-1-yl)phenyl)acetamide]",GI50,CCRF-CEM,2000 nM
same,GI50,HL-60(TB),1600 nM
same,GI50,K-562,820 nM
same,GI50,MOLT-4,2.32 µM
same,GI50,RPMI-8226,1020 nM
same,GI50,SR,510 nM
same,GI50,A549/ATCC,6.43 µM
same,GI50,EKVX,5.5 µM
same,GI50,HOP-62,4.68 µM
same,GI50,HOP-92,4.51 µM
same,GI50,NCI-H226,8.57 µM
same,GI50,NCI-H23,3.04 µM
same,GI50,NCI-322M,2070 nM
same,GI50,NCI-460,1800 nM
same,GI50,NCI-H522,3.34 µM
same,GI50,COLO 205,4.39 µM
same,GI50,HCC-2998,3.78 µM
same,GI50,HCT-116,990 nM
same,GI50,HCT15,1290 nM
same,GI50,HT29,2270 nM
same,GI50,KM12,1620 nM
same,GI50,SW-620,1970 nM
same,GI50,SF-268,2.89 µM
same,GI50,SF-295,4.55 µM
same,GI50,SF-539,3.59 µM
same,GI50,SNB-19,2740 nM
same,GI50,SNB-75,3.74 µM
same,GI50,U251,1400 nM
same,GI50,LOX IMVI,710 nM
same,GI50,MALME-3M,5.28 µM
same,GI50,M14,3.23 µM
same,GI50,MDA-MB-435,4.25 µM
same,GI50,SK-MEL-2 [1],7.01 µM
same,GI50,SK-MEL-2 [2],4.47 µM
same,GI50,SK-MEL-5,4.45 µM
same,GI50,UACC-257,6.99 µM
same,GI50,UACC-62,3.51 µM
same,GI50,IGROV1,2930 nM
same,GI50,OVCAR-3,960 nM
same,GI50,OVCAR-4,5.68 µM
same,GI50,OVCAR-5,4.36 µM
same,GI50,OVCAR-8,5.71 µM
same,GI50,NCI/ADR-RES,4.24 µM
same,GI50,SK-OV-3,9.81 µM
same,GI50,786-0,1370 nM
same,GI50,A498,5.56 µM
same,GI50,ACHN,5.74 µM
same,GI50,CAKI-1,3.14 µM
same,GI50,RXF393,3.89 µM
same,GI50,SN12C,1620 nM
same,GI50,TK-10,10.5 µM
same,GI50,UO-31,1720 nM
same,GI50,PC-3,1990 nM
same,GI50,DU-145,1240 nM
same,GI50,MCF7,1040 nM
same,GI50,MDA-MB-231/ATCC,2960 nM
same,GI50,HS 578T,1500 nM
same,GI50,BT-549,1320 nM
same,GI50,T-47D,8.34 µM
same,GI50,MDA-MB-468,1720 nM
same,melting point,,213 °C
